Experimental data from ChEMBL document CHEMBL4184167, “Fluoroethoxy-1,4-diphenethylpiperidine and piperazine derivatives: Potent and selective inhibitors of [3H]dopamine uptake at the vesicular monoamine transporter-2” (Bioorg Med Chem Lett, 2017).

Key:
[1] = molecular target: Synaptic vesicular amine transporter (Rattus norvegicus, UniProt Q01827); test: Inhibition of [3H]dopamine uptake at VMAT2 in rat striatal synaptic vesicles by scintillation spectrometry
[2] = molecular target: Sodium-dependent serotonin transporter (Rattus norvegicus, UniProt P31652); test: Inhibition of [3H]serotonin uptake at SERT in rat striatal synaptosomes preincubated for 5 mins followed by radioligand addition measured after 10 mins by scintillation spectrometry; format: subcellular, Striatum
Chain of Sodium-dependent serotonin transporter (P31652 whole entry): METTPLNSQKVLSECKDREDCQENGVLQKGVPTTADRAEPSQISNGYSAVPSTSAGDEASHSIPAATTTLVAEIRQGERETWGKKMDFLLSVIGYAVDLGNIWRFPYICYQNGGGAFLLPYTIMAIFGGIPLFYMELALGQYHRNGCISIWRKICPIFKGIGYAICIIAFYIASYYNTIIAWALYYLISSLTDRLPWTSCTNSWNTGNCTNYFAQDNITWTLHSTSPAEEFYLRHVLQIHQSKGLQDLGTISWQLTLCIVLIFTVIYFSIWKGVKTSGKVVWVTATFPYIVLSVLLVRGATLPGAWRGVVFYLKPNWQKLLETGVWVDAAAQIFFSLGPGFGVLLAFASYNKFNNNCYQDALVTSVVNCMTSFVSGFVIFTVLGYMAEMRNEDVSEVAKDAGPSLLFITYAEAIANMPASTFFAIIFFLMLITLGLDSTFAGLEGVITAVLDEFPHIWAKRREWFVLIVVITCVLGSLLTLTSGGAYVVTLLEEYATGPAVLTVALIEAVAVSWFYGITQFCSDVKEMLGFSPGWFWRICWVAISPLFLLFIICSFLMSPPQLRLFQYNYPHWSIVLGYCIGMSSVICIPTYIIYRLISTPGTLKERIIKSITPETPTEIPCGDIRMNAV

[3] = molecular target: Voltage-gated inwardly rectifying potassium channel KCNH2 (Homo sapiens, UniProt Q12809); test: Displacement of [3H]Dofetilide from human ERG expressed in HEK293 cells after 60 mins by scintillation spectrometry
Chain of Voltage-gated inwardly rectifying potassium channel KCNH2 (Q12809 whole entry): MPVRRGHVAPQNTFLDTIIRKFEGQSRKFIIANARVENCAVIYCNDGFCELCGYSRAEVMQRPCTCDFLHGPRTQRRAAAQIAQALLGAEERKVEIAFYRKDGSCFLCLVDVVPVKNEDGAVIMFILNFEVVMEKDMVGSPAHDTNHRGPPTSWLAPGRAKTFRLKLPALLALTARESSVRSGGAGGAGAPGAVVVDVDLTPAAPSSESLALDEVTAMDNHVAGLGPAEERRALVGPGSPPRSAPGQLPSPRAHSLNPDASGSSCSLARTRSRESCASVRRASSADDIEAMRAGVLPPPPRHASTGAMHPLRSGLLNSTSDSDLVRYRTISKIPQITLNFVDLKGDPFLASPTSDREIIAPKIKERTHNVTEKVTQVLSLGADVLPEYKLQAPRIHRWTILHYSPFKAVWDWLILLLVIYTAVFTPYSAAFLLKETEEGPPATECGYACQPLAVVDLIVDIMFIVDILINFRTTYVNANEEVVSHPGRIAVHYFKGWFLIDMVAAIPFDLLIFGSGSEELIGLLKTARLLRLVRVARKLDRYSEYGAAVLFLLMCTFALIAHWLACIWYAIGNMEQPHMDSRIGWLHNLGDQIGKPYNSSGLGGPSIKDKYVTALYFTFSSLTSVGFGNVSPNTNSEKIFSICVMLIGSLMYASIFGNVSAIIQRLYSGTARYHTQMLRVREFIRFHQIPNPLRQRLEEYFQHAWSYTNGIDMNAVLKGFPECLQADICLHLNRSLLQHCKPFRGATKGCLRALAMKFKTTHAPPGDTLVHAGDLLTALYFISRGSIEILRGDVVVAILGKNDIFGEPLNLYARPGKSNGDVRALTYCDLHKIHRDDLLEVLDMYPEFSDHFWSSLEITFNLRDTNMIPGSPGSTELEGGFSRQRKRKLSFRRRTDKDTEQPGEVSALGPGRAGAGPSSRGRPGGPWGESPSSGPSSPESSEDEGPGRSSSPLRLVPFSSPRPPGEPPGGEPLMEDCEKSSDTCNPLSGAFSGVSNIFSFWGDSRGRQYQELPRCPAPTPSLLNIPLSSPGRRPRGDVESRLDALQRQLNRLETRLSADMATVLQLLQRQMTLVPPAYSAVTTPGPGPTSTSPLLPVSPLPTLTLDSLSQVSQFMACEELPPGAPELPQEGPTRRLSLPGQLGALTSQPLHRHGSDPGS

[4] = molecular target: Sodium-dependent dopamine transporter (Rattus norvegicus, UniProt P23977); test: Inhibition of [3H]dopamine uptake at dopamine transporter in rat striatal synaptosomes preincubated for 5 mins followed by radioligand addition measured after 10 mins by scintillation spectrometry; format: subcellular, Striatum
Chain of Sodium-dependent dopamine transporter (P23977 whole entry): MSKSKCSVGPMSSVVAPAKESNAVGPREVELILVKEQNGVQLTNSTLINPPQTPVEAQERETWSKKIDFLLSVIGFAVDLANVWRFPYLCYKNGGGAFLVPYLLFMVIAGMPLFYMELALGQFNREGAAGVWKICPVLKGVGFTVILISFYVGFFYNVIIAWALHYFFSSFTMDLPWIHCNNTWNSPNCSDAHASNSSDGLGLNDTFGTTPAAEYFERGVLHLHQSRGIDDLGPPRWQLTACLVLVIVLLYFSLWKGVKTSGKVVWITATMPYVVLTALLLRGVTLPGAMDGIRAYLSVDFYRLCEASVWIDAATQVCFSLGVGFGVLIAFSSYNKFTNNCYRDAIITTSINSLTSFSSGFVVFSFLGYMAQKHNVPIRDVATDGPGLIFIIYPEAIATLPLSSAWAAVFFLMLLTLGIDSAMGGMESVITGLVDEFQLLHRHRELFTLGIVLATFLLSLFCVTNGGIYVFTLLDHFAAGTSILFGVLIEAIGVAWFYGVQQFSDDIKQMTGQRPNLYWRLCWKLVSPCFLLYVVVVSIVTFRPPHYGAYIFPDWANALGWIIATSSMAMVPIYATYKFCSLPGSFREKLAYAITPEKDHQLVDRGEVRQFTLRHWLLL

[5] = Half life in Sprague-Dawley rat plasma; format: ADME, cell-free

Chain of Synaptic vesicular amine transporter (Q01827 whole entry): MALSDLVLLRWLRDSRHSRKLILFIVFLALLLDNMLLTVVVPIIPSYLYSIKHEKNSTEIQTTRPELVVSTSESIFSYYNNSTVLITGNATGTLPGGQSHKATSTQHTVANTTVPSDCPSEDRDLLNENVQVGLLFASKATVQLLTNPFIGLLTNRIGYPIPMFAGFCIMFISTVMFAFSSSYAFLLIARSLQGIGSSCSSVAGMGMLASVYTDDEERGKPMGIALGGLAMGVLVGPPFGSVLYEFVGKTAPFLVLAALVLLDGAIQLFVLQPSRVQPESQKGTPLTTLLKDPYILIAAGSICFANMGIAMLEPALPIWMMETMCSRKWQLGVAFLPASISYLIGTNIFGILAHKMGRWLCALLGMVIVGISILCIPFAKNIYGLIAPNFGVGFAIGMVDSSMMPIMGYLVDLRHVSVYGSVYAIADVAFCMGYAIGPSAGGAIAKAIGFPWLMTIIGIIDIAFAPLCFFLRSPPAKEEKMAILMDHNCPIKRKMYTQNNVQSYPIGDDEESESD

| SMILES | Ki [1] [nM] | Ki [2] [nM] | IC50 [3] [nM] | Ki [4] [nM] | half-life [5] [min] |
| --- | --- | --- | --- | --- | --- |
| FCCOc1ccccc1CCN1CCN(CCc2ccc(F)cc2)CC1 | 24 | 300 | – | – | – |
| FCCOc1ccccc1CCC1CCN(CCc2ccccc2)CC1 | 35 | – | – | – | – |
| COc1ccc(CCN2CCC(CCc3ccccc3OCCF)CC2)cc1 | 73 | – | 350 | – | – |
| COc1ccccc1CCN1CCC(CCc2cccc(OCCF)c2)CC1 | 61 | 470 | 800 | – | – |
| FCCOc1ccc(CCN2CCC(CCc3ccccc3)CC2)cc1 | 150 | 390 | 350 | 1060 | – |
| CN1[C@@H](CC(=O)c2ccccc2)CCC[C@H]1C[C@H](O)c1ccccc1 [LOBELINE] | – | – | – | – | 50 |
| FCCOc1ccc(CCN2CCN(CCc3ccccc3Cl)CC2)cc1 | 450 | 480 | 1400 | – | – |
| FCCOc1cccc(CCN2CCC(CCc3ccccc3)CC2)c1 | 24 | – | – | – | – |
| COc1ccc(CCN2CCC(CCc3cccc(OCCF)c3)CC2)cc1 | 67 | 660 | 280 | – | – |
| FCCOc1ccccc1CCC1CCN(CCc2ccc(F)cc2)CC1 | 27 | – | – | – | – |
| FCCOc1ccccc1CCN1CCN(CCc2ccccc2Cl)CC1 | 14 | 72 | 850 | – | – |
| COc1ccccc1CCN1CCC(CCc2ccccc2OCCF)CC1 | 25 | – | – | – | – |
| FCCOc1cccc(CCC2CCN(CCc3ccccc3)CC2)c1 | 53 | – | – | 3140 | – |
| FCCOc1cccc(CCN2CCN(CCc3ccccc3)CC2)c1 | 73 | – | – | – | – |
| FCCOc1ccc(CCC2CCN(CCc3ccccc3Cl)CC2)cc1 | 190 | 3620 | – | – | – |
| FCCOc1ccc(CCN2CCN(CCc3ccccc3)CC2)cc1 | 600 | 3370 | 3050 | 2740 | – |
